Biological target: SLC38A5 (Homo sapiens, UniProt Q8WUX1)
Test: inhibition of Li+-stimulated [3H]-serine uptake in HPAF-II and TXBR-100 cells (endogenous transporter)
Format: cell-based

SLC38A5, sequence (Q8WUX1 whole entry): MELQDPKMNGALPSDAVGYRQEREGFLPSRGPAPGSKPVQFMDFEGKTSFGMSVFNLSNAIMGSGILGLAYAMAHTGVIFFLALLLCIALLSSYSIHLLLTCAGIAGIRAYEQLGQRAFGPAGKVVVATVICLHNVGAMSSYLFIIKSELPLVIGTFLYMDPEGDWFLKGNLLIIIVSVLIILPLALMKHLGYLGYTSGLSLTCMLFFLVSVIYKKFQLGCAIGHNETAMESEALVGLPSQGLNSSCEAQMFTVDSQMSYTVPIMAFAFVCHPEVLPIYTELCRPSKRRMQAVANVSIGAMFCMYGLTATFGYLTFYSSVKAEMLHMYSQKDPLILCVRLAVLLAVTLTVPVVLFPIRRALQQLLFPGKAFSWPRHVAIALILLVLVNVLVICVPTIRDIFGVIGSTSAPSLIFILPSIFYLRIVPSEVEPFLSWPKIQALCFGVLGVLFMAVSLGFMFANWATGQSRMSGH

IC50: 1 to 2.5 µM
Structure (SMILES): O=C(Nc1ccc([N+](=O)[O-])cc1Cl)c1cc(Cl)ccc1O [niclosamide]

Reference: article PMC9913174, “Potent Inhibition of Macropinocytosis by Niclosamide in Cancer Cells: A Novel Mechanism for the Anticancer Efficacy for the Antihelminthic” (Cancers, 2023)
